In patent publication US5635534A, “Aromatic amino-alcohol derivatives having anti-diabetic and anti-obesity properties, their preparation and their therapeutic uses” (Sankyo Company, Limited, priority 1991, dated 1997):
Where a name gives a salt, the structure may show the parent alone. Read-outs that look alike come from different tables or passages of the source.

Legend:
KK male mice = assay: Hypoglycemic effect during glucose load in mice; type: in vivo, mouse; conditions: 1 mg/kg oral, 4 mice; for inhibition in vivo at 1 mg/kg: Mus musculus, po
Method: Hypoglycemic effect during glucose load
The hypoglycemic effect of the compounds of the present invention during glucose load in mice was measured as follows.
Three month old KK male mice, each weighing 28 to 30 g, were fasted overnight, and then 1 mg/kg of the compound to be tested or carboxymethylcellulose (CMC) as a control was administered orally. After 60 minutes, 1.2 g/kg of D-glucose was administered subcutaneously. Then, at 60 and 120 minutes after the subcutaneous glucose injection, blood samples were taken, and the glucose levels were determined by means of a glucose analyzer (GL-101, a product of Mitsubishi Kasei, Co.). The hypoglycemic rates (R) of the test compound during the glucose load were calculated according to the following equation: […]
A: Blood glucose level in the group administered CMC
B: Blood glucose level in the group administered a test sample.

[1] = target: T1, Bovine lens aldose reductase (Bos taurus, UniProt P16116); assay: Inhibition of Aldose reductase; type: biochemical; conditions: for inhibition at 5 µg/mL: 5 μg/ml
T1 construct: Bovine lens aldose reductase was separated and partially purified; from tissue; host or cells: bovine lens
Method: Inhibition of Aldose reductase
Bovine lens aldose reductase was separated and partially purified by the method of S. Hyman and J. H. Kinoshita [J. Biol. Chem., 240, 877 (1965)] and K. Inagaki, I. Miwa and J. Okuda [Arch. Biochem. Biophys., 316, 337 (1982)], and its activity was determined photometrically by the method of Varma et al. [Biochem. Pharmac., 25, 2505 (1976)]. Inhibition of enzyme activity was measured for the compounds of the present invention at a concentration of 5 μg/ml, and the results are shown in the following Table 10.

[2] = test system: male mice of the ddY strain; assay: Toxicity, oral administration to mice, one week observation; type: in vivo, mouse; conditions: 300 mg/kg oral; for survival at the end of the period of observation: groups of 3, one week; for abnormalities which could be attributed to the test compounds: groups of 3, one week observation
Method: The test animals employed were male mice of the ddY strain. The animals were employed in groups of 3. The test compound was administered orally to each animal group at a dose of 300 mg/kg body weight. The compounds employed were those prepared as described in Examples 1, 3, 8, 24, 47 and 48.

[3] = 1 h, 60 min after subcutaneous glucose 1.2 g/kg, read-out: Hypoglycemic rate during glucose load, 60 min.
[4] = 2 h, 120 min after subcutaneous glucose 1.2 g/kg, read-out: Hypoglycemic rate during glucose load, 120 min.

`COC(=O)Cc1ccc(OCC(C)NCC(O)c2cc(Cl)cc(Cl)c2)cc1` (stereo not shown) [Example 40, 2-[2-(4-Methoxycarbonylmethylphenoxy)-1-methylethyl]amino-1-(3,5-dichlorophenyl)ethanol] showed an inhibition in vivo at 1 mg/kg (KK male mice; [3]) of 37.9% and an inhibition in vivo at 1 mg/kg (KK male mice; [4]) of 24.5%.
`COC(=O)Cc1ccc(OCC(C)NCC(O)c2cccc(Cl)c2)cc1` (stereo not shown) [Example 3, 2-[2-(4-Methoxycarbonylmethylphenoxy)-1-methylethyl]-amino-1-(3-chlorophenyl)ethanol] showed an inhibition in vivo at 1 mg/kg (KK male mice; [3]) of 67.3% and an inhibition in vivo at 1 mg/kg (KK male mice; [4]) of 56.5%.
`COC(=O)Cc1ccc(OCC(C)NCC(O)c2cccc(Br)c2)cc1` (stereo not shown) [Example 42, 2-[2-(4-Methoxycarbonylmethylphenoxy)-1-methylethyl]amino-1-(3-bromophenyl)ethanol] showed an inhibition in vivo at 1 mg/kg (KK male mice; [3]) of 60.9% and an inhibition in vivo at 1 mg/kg (KK male mice; [4]) of 57.6%.
With `CC(COc1ccc(CCO)cc1)NCC(O)c1cccc(Cl)c1` (stereo not shown) [Example 8, 2-{2-[4-(2-Hydroxyethyl)phenoxy]-1-methylethyl}amino-1-(3-chlorophenyl)ethanol] the inhibition in vivo at 1 mg/kg (KK male mice; [3]) was 56.8% and the inhibition in vivo at 1 mg/kg (KK male mice; [4]) was 45.1%.
For `COC(=O)Cc1ccc(OCC(C)NCC(O)c2cccc(Cl)c2)cc1` (stereo not shown) [Example 24, 2-[2-(4-Methoxycarbonylmethylphenoxy)-1-methylethyl]amino-1-(3-chloropbenyl)ethanol fumarate], the “Hypoglycemic rate during glucose load, 60 min.” value (KK male mice; 60 min after subcutaneous glucose 1.2 g/kg) was 61.4% and the “Hypoglycemic rate during glucose load, 120 min.” value (KK male mice; 120 min after subcutaneous glucose 1.2 g/kg) was 56.9%.
Compound `CC(COc1ccc(CC(=O)O)cc1Cl)NCC(O)c1cccc(Cl)c1` (stereo not shown) [Example 36, 2-[2-(4-Carboxymethyl-2-chlorophenoxy)-1-methylethyl]amino-1-(3-chlorophenyl)ethanol] has an IC50 [1] of 7.28 µM and an inhibition at 5 µg/mL [1] of 60.4%.
With `COC(=O)Cc1ccc(OCC(C)NCC(O)c2cccc(OC)c2)cc1` (stereo not shown) [Example 44, 2-[2-(4-Methoxycarbonylmethylphenoxy)-1-methylethyl]amino-1-(3-methoxyphenyl)ethanol] the inhibition in vivo at 1 mg/kg (KK male mice; [3]) was 38.1% and the inhibition in vivo at 1 mg/kg (KK male mice; [4]) was 24.8%.
`COC(=O)C(O)Cc1ccc(OCC(C)NCC(O)c2cccc(Cl)c2)cc1` (stereo not shown) [Example 6, 2-{2-[4-(2-Methoxycarbonyl-2-hydroxyethyl)phenoxy]-1-methylethyl}amino-1-(3-chlorophenyl)ethanol] gave an inhibition in vivo at 1 mg/kg (KK male mice; [3]) of 43.4% and an inhibition in vivo at 1 mg/kg (KK male mice; [4]) of 40.5%.
With `CC(COc1ccc(CO)cc1)NCC(O)c1cccc(Cl)c1` (stereo not shown) [Example 1, 2-[2-(4-Hydroxymethylphenoxy)-1-methylethyl]-amino-1-(3-chlorophenyl)ethanol] the “survival at the end of the period of observation” value [2] was “All animals were alive” and the “abnormalities which could be attributed to the test compounds” value [2] was “no abnormalities”.
In the case of `CC(COc1ccc(CC(=O)NO)cc1Cl)NCC(O)c1cccc(Cl)c1` (stereo not shown) [Example 34, 2-{2-[2-Chloro-4-(N-hydroxycarbamoylmethyl)phenoxy]-1-methylethyl}amino-1-(3-chlorophenyl)ethanol], the IC50 [1] is reported as 6.05 µM and the inhibition at 5 µg/mL [1] is reported as 63.3%.
With `COC(=O)Cc1ccc(OC[C@@H](C)NC[C@H](O)c2ccccc2)cc1` [Example 27, 2-[2-(4-Methoxycarbonylmethylphenoxy)-1(R)-methylethyl]amino-1(R)-phenylethanol] the inhibition in vivo at 1 mg/kg (KK male mice; [3]) was 68.4% and the inhibition in vivo at 1 mg/kg (KK male mice; [4]) was 52.1%.
Compound `COC(=O)Cc1ccc(OCC(C)NCC(O)c2cccc(C(F)(F)F)c2)cc1` (stereo not shown) [Example 43, 2-[2-(4-Methoxycarbonylmethylphenoxy)-1-methylethyl]amino-1-(3-trifluoromethylphenyl)ethanol] has an inhibition in vivo at 1 mg/kg (KK male mice; [3]) of 66.5% and an inhibition in vivo at 1 mg/kg (KK male mice; [4]) of 58.6%.
`COC(=O)Cc1ccc(OCC(C)NCC(O)c2ccc(F)c(Cl)c2)cc1` (stereo not shown) [Example 41, 2-[2-(4-Methoxycarbonylmethylphenoxy)-1-methylethyl]amino-1-(3-chloro-4-fluorophenyl)ethanol] was tested, and the inhibition in vivo at 1 mg/kg (KK male mice; [3]) was 50.1% and the inhibition in vivo at 1 mg/kg (KK male mice; [4]) was 43%.
With `COC(=O)Cc1ccc(OC[C@@H](C)NC[C@H](O)c2cccc(Cl)c2)cc1.O=C(O)/C=C/C(=O)O` [Example 47, 2-[2-(4-Methoxycarbonylmethylphenoxy)-1(R)-methylethyl]amino-1(R)-(3-chlorophenyl)ethanol fumarate] the “survival at the end of the period of observation” value [2] was “All animals were alive”, the “abnormalities which could be attributed to the test compounds” value [2] was “no abnormalities” and the inhibition in vivo at 1 mg/kg (KK male mice; [3]) was 60.9%. It also gave an inhibition in vivo at 1 mg/kg (KK male mice; [4]) of 51.5%.
Compound `C[C@H](COc1ccc(CC2SC(=O)NC2=O)cc1)NC[C@H](O)c1cccc(Cl)c1` (stereo partly drawn) [Example 48, 5-[4-{2(R)-[2(R)-(3-Chlorophenyl)-2-hydroxyethylamino]propoxy}benzyl]thiazolidine-2,4-dione] has an inhibition at 5 µg/mL [1] of 47.5%.
